The text below walks through data of patent US4539037A, “Urease inhibited urea based fertilizer compositions containing N-aryl-N-aliphatic phosphorotriamide compounds” (Allied Corporation, priority 1983, dated 1985).

The test system of assay [1] is soil urease. Description: Soil urease inhibition test (urea remaining after incubation in Cazenovia sandy loam, 25° C., 3 days). The format is biochemical. Conditions: for % Inhibition 20 μmg: 20 micrograms test compound per 20 g soil. The method, then:
The inhibition tests were run in a New York soil (Cazenovia sandy loam, pH 7.2). […] The bottle was capped with perforated aluminum foil and incubated at 25° C. for 3 days prior to extraction with 100 mL 2M KCl containing 0.5 mg phenylmercuric acetate. The extracts were then analyzed for remaining urea using an auto analyzer. Percent inhibition was calculated as
% Inhibition=[-1(A-B/A-C)]×100
where A is urea recovered from unincubated sample (urea added to soil and immediately extracted); B is urea recovered from inhibited sample; and C is urea recovered from the control (uninhibited sample).

In assay [2] the test system is soil urease. Description: Urea hydrolyzed vs. time in soil at elevated temperature (35° C.). The format is biochemical. Conditions: soil at 35° C., 10 micrograms of urease inhibitor per gram of soil; for urease inhibiting effect at 35° C. (FIGURE, in words): sampled every two days, period of 12 days. The method, then:
FIG. 1 is a graph of urea hydrolyzed vs. time at 35° C. using 10 micrograms of urease inhibitor per gram of soil.
Several representative N-alkyl-N-aryl phosphoric triamide compounds useful in the practice of this invention were tested to determine their relative effectiveness or urease inhibitors. The inhibition tests were run in a New York soil (Cazenovia sandy loam, pH 7.2). Evaluations (run in triplicate) consisted of applying 800 and 20 micrograms of test compound in 5 mL water and 42.8 mg urea in 1 mL water to 20 g air-dry soil in a glass bottle. The bottle was capped with perforated aluminum foil and incubated at 25° C. for 3 days prior to extraction with 100 mL 2M KCl containing 0.5 mg phenylmercuric acetate. The extracts were then analyzed for remaining urea using an auto analyzer. Percent inhibition was calculated as
Employing the procedure of EXAMPLES VII to IX a series of test were conducted to show improved efficiency of N-aliphatic-N-arylphosphoric triamides at elevated temperature as compared to the efficiency of phenylphosphorodiamidate, a prior art urease inhibitor. This test was conducted similarly to the test previously described, but soil samples were taken every two days and analyzed for urea content.

Assay [3] has as its system soil urease. Conditions: stated for a known compound; cited from earlier work.
[4] abbreviates: Table II, procedure of Examples VII to IX.
The mark [5] stands for this setting: Table II, procedure of Examples VII to IX, 800 micrograms test compound per 20 g soil.

With `NP(N)(=O)Nc1ccccc1` [Comp II], in the assay on soil urease [1] (setting [4]), the “% Inhibition 20 μmg” value was found to be 19%. Besides, the “% Inhibition 800 μmg” value in the assay with soil urease [1] (setting [5]) stood at 74%.
The like results for `NP(N)(=O)Nc1ccc([N+](=O)[O-])cc1` [Comp I] were, in that order, 30% and 81%.
In the case of `COc1ccc(N(C)P(N)(N)=O)cc1` [VIII], the “% Inhibition 800 μmg” value in the assay with soil urease [1] (Table I, 800 micrograms test compound + 42.8 mg urea per 20 g air-dry soil (pH 7.2), triplicate) is recorded as 47%.
As to `NP(N)(=O)Oc1ccccc1` [phenyl phosphorodiamidate], in the assay on soil urease [2], the “time to essentially complete urea hydrolysis” value was found to be 6 days and the “urease inhibiting effect at 35° C. (FIGURE, in words)” value is reported as “much less effective”. Further, the “urease inhibiting effect at 25° C. (in words)” value in the assay on soil urease [3] is listed as “excellent urease inhibiting effect”.
Turning to “N-Methyl-N-(4-nitrophenyl) Phosphoric Triamide [IX]”, in the assay with soil urease [2], the “urease inhibiting effect at 35° C. (FIGURE, in words)” value was “excellent inhibitor”.
